Measurements as given in patent publication US20080107757A1, “Sophorae Subprostratae Radix Extract for Prevention and Treatment of Respiratory Diseases” (priority 2004, published 2008).
pIC50: −log10 of the molar value.

Tests used:
[1] = system: guinea pig; test: Antitussive effect, citric acid aerosol-induced cough; assay type: in vivo
Method: The method used was the method by M. H. Boskabady et al. (journal of Entnopharmacology 97, 2005, 79-82) with a bit of modifications.
A Hartley male guinea pig (450˜500 g, SLC, Japan) was orally administered with a drug. 1 hr after the administration, the guinea pig was placed in Double Chamber Plethysmograph Box (HSE, Germany) installed with plethysmometer and stabilized by allowing a 5 min of time for adaptation. After the stabilization, 0.6M citric acid was sprayed to the guinea pig for 7 min in the form of aerosol by preparing a compressed air under high pressure. The guinea pig was observed continuously by a trained observer and the number of coughs induced by the above spray of citric acid aerosol was measured by using a microphone and a speaker. The coughs were distinguished from a normal sneeze due to its particular signs such as a peculiar and high sound with its mouth open, movement of abdomen, and an instant change in air flow.

[2] = system: sensitized guinea pig; test: Inhibition of airway contraction (in vivo), OVA aerosol bronchospasm, airway resistance by plethysmograph
Method: To evaluate the inhibitory effect of Sophorae Radix extract prepared in Preparation Examples 1-3 against airway contraction, experiments were performed as described below by exposing antigens to a sensitized guinea pig and the results are shown in Table 2.
A Hartely male guinea pig(400-450 g, SLC, Japan) was sensitized by intravenously injecting 1.5 mL/kg of anti-ovalbumin anti-serum. 48 hrs after the sensitization, the guinea pig was administered with a drug orally. In 30 min, the guinea pig was pretreated by injecting 10 mg/kg of pyrilamine maleate, 10 mg/kg of indomethacin, and 0.1 mg/kg of propranolol subcutaneously, respectively. Then, the guinea pig was placed in Double Chamber Plethysmograph Box(HSE, Germany) installed with plethysmometer for measuring various respiratory indices and measured basic airway resistance values. 30 min after the pretreatment, 1% OVA was nebulized for 2 min in the form of aerosol by preparing a compressed air under high pressure. Airway resistance was measured for 30 min as an indicator of bronchospasm.

[3] = system: Phosphodiesterase 4 (PDE4); test: Inhibition of phosphodiesterase 4 (PDE4) activity, human U937 cells, [3H]cAMP; assay type: biochemical; conditions: positive control
Method: Human U937 cells were stabilized in the mixed solution comprising 50 mM Tris-HCl and 5 mM MgCl2 (pH 7.5) at 25° C. Sophorae Radix extract and 1.01 μM of ([3H]cAMP+cAMP) as a base material were combined together and allowed to react for 20 min to produce adenosine.

Structure (SMILES): CC(C)(O)c1ccccc1CC[C@@H](SCC1(CC(=O)O)CC1)c1cccc(/C=C/c2ccc3ccc(Cl)cc3n2)c1 [Montelukast]
- Cough ([1]; 10 mg/kg oral): 11.1 ± 2.9 (N = 9)
- Inhibition (%) of cough ([1]; 10 mg/kg oral): 10%
- Cough ([1]; 40 mg/kg oral): 11.4 ± 4.3 (N = 7)
- Inhibition (%) of cough ([1]; 40 mg/kg oral): 7%
- Inhibition Rate of Bronchospasm (%) ([2]; 10 mg/kg oral): 45%
- Inhibition Rate of Bronchospasm (%) ([2]; 40 mg/kg oral): 75%

Structure (SMILES): CC(C)Cn1c(=O)n(C)c(=O)c2[nH]cnc21 [IBMX, 3-isobutyl-1-methylxanthine]
- pIC50 [3]: 4.68

Structure (SMILES): COc1ccc2c(c1)[C@]13CCCC[C@@H]1[C@H](C2)N(C)CC3 [Dextromethorphan]
- Cough ([1]; 50 mg/kg oral): 11.1 ± 2.5 (N = 7)
- Inhibition (%) of cough ([1]; 50 mg/kg oral): 9%
- Cough ([1]; 100 mg/kg oral): 4.5 ± 2.6 (N = 10)
- Inhibition (%) of cough ([1]; 100 mg/kg oral): 63%
